pIC50: −log10 of the molar value. Activity calls are given as the source filed them. The rule behind the calls is not given here.
What was measured:
[1] = system: NCI/ADR-RES; test: Potency index, ratio of oridonin IC50 to compound IC50 for antiproliferative activity against human MCF7/ADR cells after 72 hrs by MTT assay; type: functional
[2] = Toxicity in ICR mouse assessed as induction of morphological changes in heart at 25 mg/kg, iv administered once per day for 23 consecutive days; type: organism-based; conditions: in vivo
[3] = Inhibition of PI3K/Akt/mTOR signalling pathway in human HCC1806 cells assessed as reduction in phosphorylated Akt expression at S473 residue after 48 hrs by Western blot analysis; type: cell-based
[4] = system: HCC1806; test: Induction of apoptosis in human HCC1806 cells assessed as decrease in Bcl2 expression at >= 50 nM after 48 hrs by Western blot analysis; type: functional, cell-based
[5] = Toxicity in ICR mouse assessed as induction of morphological changes in liver at 25 mg/kg, iv administered once per day for 23 consecutive days; type: organism-based; conditions: in vivo
[6] = system: HCC1806; test: Induction of cell cycle arrest in human HCC1806 cells assessed as accumulation at G1 phase at 50 nM after 48 hrs by propidium iodide staining based FACScan flow cytometry (reference value: 70.74%); type: functional
[7] = system: HCC1806; test: Antitumor activity against human HCC1806 cells in ICR mouse assessed as increase in apoptosis in tumor at 12.5 to 25 mg/kg, iv administered once per day for 23 consecutive days by TUNEL based immunohistochemical analysis; type: functional, organism-based
[8] = system: HCC1806; test: Induction of apoptosis in human HCC1806 cells assessed as early apoptotic cells at 100 uM after 48 hrs by Annexin V-FITC/propidium iodide double staining based flow cytometry (reference value: 2.16%); type: functional
[9] = system: HCC1806; test: Antimigratory activity in human HCC1806 cells assessed as reduction in integrin beta1 level after 48 hrs by Western blot analysis; type: functional, cell-based
[10] = system: HCC1806; test: Induction of apoptosis in human HCC1806 cells after 48 hrs by Annexin V-FITC/propidium iodide double staining based flow cytometry; type: functional, cell-based
[11] = system: HCC1806; test: Induction of apoptosis in human HCC1806 cells assessed as viable cells at 100 uM after 48 hrs by Annexin V-FITC/propidium iodide double staining based flow cytometry (reference value: 95.7%); type: functional; conditions: HCC1806, 48 h, read-out: Activity
[12] = system: HCC1806; test: Induction of apoptosis in human HCC1806 cells assessed as necrotic cells at 100 uM after 48 hrs by Annexin V-FITC/propidium iodide double staining based flow cytometry (reference value: 1.32%); type: functional
[13] = system: HCC1806; test: Induction of apoptosis in human HCC1806 cells assessed as late apoptotic cells at 200 uM after 48 hrs by Annexin V-FITC/propidium iodide double staining based flow cytometry (reference value: 0.81%); type: functional
[14] = Toxicity in ICR mouse assessed as induction of morphological changes in spleen at 25 mg/kg, iv administered once per day for 23 consecutive days; type: organism-based; conditions: in vivo
[15] = Toxicity in ICR mouse assessed as reduction in body weight at 12.5 to 25 mg/kg, iv administered once per day for 23 consecutive days and measured every 2 days; type: organism-based; conditions: in vivo, 48 h
[16] = system: MDA-MB-453; test: Antiproliferative activity against human MDA-MB-453 cells after 72 hrs by MTT assay; type: functional, cell-based; conditions: MDA-MB-453, 72 h
[17] = system: HCC1806; test: Antimigratory activity in human HCC1806 cells assessed as reduction in EGFR expression at 50 to 200 nM after 48 hrs by Western blot analysis; type: functional, cell-based
[18] = system: HCC1806; test: Antitumor activity against human HCC1806 cells in ICR mouse assessed as tumor shrinkage at 12.5 to 25 mg/kg, iv administered once per day for 23 consecutive days by hematoxylin and eosin staining based histopathological assay; type: functional, organism-based
[19] = system: HCC1806; test: Induction of cell cycle arrest in human HCC1806 cells assessed as accumulation at G2/M phase at 200 nM after 48 hrs by propidium iodide staining based FACScan flow cytometry (reference value: 10.38%); type: functional
[20] = system: HCC1806; test: Induction of apoptosis in human HCC1806 cells assessed as increase in Bad expression at 50 to 200 nM after 48 hrs by Western blot analysis; type: functional, cell-based
[21] = system: HCC1806; test: Induction of intracellular reactive oxygen species generation in human HCC1806 cells assessed as accumulation of DCFH2-DA positive cells at 200 nM incubated for 48 hrs by flow cytometeric analysis (reference value: 3.53%); type: functional
[22] = system: HCC1806; test: Induction of intracellular reactive oxygen species generation in human HCC1806 cells incubated for 48 hrs by DCFH2-DA staining based flow cytometeric analysis; type: functional, cell-based
[23] = system: HCC1806; test: Induction of intracellular reactive oxygen species generation in human HCC1806 cells at 200 nM incubated for 48 hrs in presence of ROS scavenger N-acetyl cysteine by DCFH2-DA staining based flow cytometeric analysis; type: functional, cell-based
[24] = system: HCC1806; test: Induction of apoptosis in human HCC1806 cells assessed as early apoptotic cells at 50 uM after 48 hrs by Annexin V-FITC/propidium iodide double staining based flow cytometry (reference value: 2.16%); type: functional
[25] = system: HCC1806; test: Induction of apoptosis in human HCC1806 cells assessed as viable cells at 200 uM after 48 hrs by Annexin V-FITC/propidium iodide double staining based flow cytometry (reference value: 95.7%); type: functional; conditions: HCC1806, 48 h, read-out: Activity
[26] = system: HCC1806; test: Induction of cell cycle arrest in human HCC1806 cells assessed as downregulation of cyclin B1 expression by western blot analysis; type: functional, cell-based
[27] = system: HCC1806; test: Inhibition of cell adhesion in human HCC1806 cells incubated for 48 hrs by phase contrast microscopy; type: functional, cell-based
[28] = system: HCC1806; test: Induction of cell cycle arrest in human HCC1806 cells assessed as accumulation at S phase at 100 nM after 48 hrs by propidium iodide staining based FACScan flow cytometry (reference value: 18.89%); type: functional
[29] = system: HCC1806; test: Induction of apoptosis in human HCC1806 cells assessed as necrotic cells at 200 uM after 48 hrs by Annexin V-FITC/propidium iodide double staining based flow cytometry (reference value: 1.32%); type: functional
[30] = system: HCC1806; test: Induction of cell cycle arrest in human HCC1806 cells assessed as accumulation at G1 phase at 200 nM after 48 hrs by propidium iodide staining based FACScan flow cytometry (reference value: 70.74%); type: functional
[31] = system: HCC1806; test: Antitumor activity against human HCC1806 cells in ICR mouse assessed as increase in apoptosis in tumor at 12.5 to 25 mg/kg, iv administered once per day for 23 consecutive days by Ki67 staining-based immunohistochemical analysis; type: functional, organism-based
[32] = system: HCC1806; test: Induction of cell cycle arrest in human HCC1806 cells assessed as downregulation of cdc2 expression by western blot analysis; type: functional, cell-based
[33] = system: HCC1806; test: Induction of apoptosis in human HCC1806 cells assessed as late apoptotic cells at 50 uM after 48 hrs by Annexin V-FITC/propidium iodide double staining based flow cytometry (reference value: 0.81%); type: functional
[34] = system: HCC1806; test: Antimigratory activity against human HCC1806 cells assessed as reduction in MMP2 expression at 50 to 200 nM after 48 hrs by Western blot analysis; type: functional, cell-based
[35] = system: HCC1806; test: Induction of apoptosis in human HCC1806 cells assessed as necrotic cells at 50 uM after 48 hrs by Annexin V-FITC/propidium iodide double staining based flow cytometry (reference value: 1.32%); type: functional

C=C1C(=O)[C@@]23C(=O)[C@@H]4OC[C@]5(C=CCC(C)(C)[C@@H]45)[C@@H]2CC[C@@H]1[C@H]3OC(=O)/C=C/c1ccncc1
Ratio IC50 [1]: 20 | Activity [2]: Non-Toxic | inhibition [3]: Dose-dependent effect | Activity [4]: Active | Activity [5]: Non-Toxic | Activity [6]: 65.83% | Activity [7]: Active | Activity [8]: 26.78% | Activity [9]: Dose-dependent effect | Activity [10]: Dose-dependent effect | viability at 100 µM [11]: 69% | Activity [12]: 0.66% | Activity [13]: 22.79% | Activity [14]: Non-Toxic | Activity [15]: Non-Toxic | pIC50 [16]: 6.48 | Activity [17]: Active | Activity [18]: Active | Activity [19]: 24.28% | Activity [20]: Active | Activity [21]: 45.87% | Activity [22]: Dose-dependent effect | Activity [23]: inactive | Activity [24]: 14.87% | viability at 200 µM [25]: 50.4% | Activity [26]: Dose-dependent effect | inhibition [27]: Dose-dependent effect | Activity [28]: 19.13% | Activity [29]: 4.32% | Activity [30]: 54.97% | Activity [31]: Active | Activity [32]: Dose-dependent effect | Activity [33]: 2.43% | Activity [34]: Active | Activity [35]: 0.46%

Source: ChEMBL document CHEMBL4627407, “Identification of a Potent Oridonin Analogue for Treatment of Triple-Negative Breast Cancer” (J Med Chem, 2020)
